Data set [1] in a line: Water solubility in aqueous buffer. In kind it is physicochemical.
A short description of data set [2]: Stability under acidic and neutral conditions at 37° C. Particulars: FIG. 8. In kind it is physicochemical.
Data set [3] is described as follows: Conversion of prodrug to drug in microsome preparations. In kind it is in vitro ADME, rat. An excerpt:
(§1) Although phosphate-containing prodrugs suitable for oral administration are of interest, skilled artisans will appreciate that prodrugs including phosphate-containing progroups R^p can be administered via other routes of administration, as phosphatases are distributed throughout the body. […] Thus, the only requirement is that the particular phosphate-containing progroup R^P selected should be removable under the conditions of intended use.

Data set [4] can be described thus: Stability / hydrolysis in rat plasma. Conditions: FIG. 10. In kind it is in vitro ADME.
Excerpt: as §1
The presence of Phosphatase activity in rat plasma was confirmed using p-nitrophenyl phosphate—a known substrate for phosphatase.

Data set [5] in a line: Pharmacokinetics after IV and oral dosing in rats. In kind it is in vivo, Sprague-Dawley rats. As for the experimental part:
Prodrug Compound 4 was tested for oral bioavailability. For the study, the prodrug was dissolved in various vehicles (e.g. PEG 400 solution and CMC suspension) for intravenous and oral dosing in the rats. […] Following administration of the prodrug and/or drug, plasma samples were obtained and extracted. The plasma concentrations of the prodrug and/or drug were determined by high performance liquid chromatography/tandem mass spectrometry (LC/MS/MS) methods. Pharmacokinetic analyses were performed based on the plasma concentration data. The pharmacokinetic parameters of interest include Clearance (CL), Volume of distribution at steady-state (Vss), terminal half-life (t1/2), and oral bioavailability (% F).
Referring to FIG. 4, PK profiles are shown for IV and PO administration in Spraque-Dawley rats. For IV administration, Compound 4 was dissolved in PEG-400 and administered at a dose of 1 mg/kg.
FIG. 5 summarizes the PK parameters for the study described in FIG. 4.
FIG. 11 illustrates the absorption of prodrug Compound 4 from different vehicles.

Data set [6] concerns Cord-Blood Derived Primary Human Mast Cells (CHMC). Briefly: FcεRI-dependent activation of CHMC, tryptase released upon degranulation. In kind it is cell-based. Particulars: Mast cell, activity of tryptase released upon degranulation.
Data set [7] concerns CHMCs. Nature of the data set: Ionomycin-induced degranulation of CHMCs. In kind it is cell-based, Human.
The subject of data set [8] is LTC4. Briefly: FcεRI-dependent production and release of LTC4. In kind it is cell-based. Conditions: Homo sapiens.
Data set [9] concerns cytokines. Briefly: FcεRI-dependent production and release of cytokines. In kind it is cell-based. Particulars: Homo sapiens; range over cytokines; read-out: EC50, FcεRI-dependent production and release of all cytokines tested.
The test system of data set [10] is IC-mediated vascular edema (Arthus reaction). Briefly: Reverse Passive Arthus (RPA) reaction. In kind it is in vivo, rat. An excerpt:
IC-mediated acute inflammatory tissue injury is implicated in a variety of human autoimmune diseases, including vasculitis, serum sickness, systemic lupus erythematosus, RA, and glomerulonephritis. The classical experimental model for IC-mediated tissue injury is the Reverse Passive Arthus (RPA) reaction. Intravenous injection of antigen (ovalbumin, OVA) following intradermal injection of antibodies specific to OVA (rabbit anti-OVA IgG) results in perivascular deposition of IC and a rapid inflammatory response characterized by edema, neutrophil infiltration, and hemorrhage at the injection sites (Szalai, et al., 2000, J. Immunol. 164(1):463-468).

In data set [11] the test system is collagen antibody-induced arthritis. Briefly: Collagen antibody-induced arthritis (CAIA). In kind it is in vivo, Balb/c mice. An excerpt: This passive model differs from the traditional rodent collagen-induced arthritis (CIA) in that disease symptoms appear quickly (developing within 24-48 hrs after an IV-injection of antibodies), arthritis is inducible in both CIA-susceptible and CIA-resistant mouse strains, and it allows evaluation of inflammation that is independent of antibody production. CAIA was induced in Balb/c mice by intravenous injection of Arthrogen-CIA® Monoclonal Antibody Blend (Chemicon International, Inc., Temecula, Calif.) via the tail vein, followed 2 days later by an intraperitoneal injection of LPS. […] The severity of the arthritis in hind-paws was scored daily (scale of 0-4 per paw, sum of scores for both hind paws).

In data set [12] the test system is collagen-induced arthritis. Briefly: Collagen-induced arthritis (CIA). In kind it is in vivo, Syngeneic LOU rats. An excerpt:
One of the experimental models for IC-mediated tissue injury is the CIA in rodents (Kleinau et al., 2000, J. Exp. Med. 191:1611-1616). Injection of type II collagen (CII) into rodents produces an immune reaction that characteristically involves inflammatory destruction of cartilage and bone of the distal joints with concomitant swelling of surrounding tissues. CIA in rats is commonly used to evaluate compounds that might be of potential use as drugs for treatment of rheumatoid arthritis and other chronic inflammatory conditions and is induced in susceptible strains of either mice or rats by injection of CII in incomplete Freund's adjuvant (IFA). Administration of this emulsion gives rise to polyarthritis, characterized by synovial hyperplasia, infiltration of mononuclear cells, pannus formation, and destruction of cartilage and bone. […] Syngeneic LOU rats were immunized on Day 0 with native chicken CII/IFA. Oral treatment began at the onset of arthritis symptoms (Day 10). […] Hind limbs were scored daily for clinical arthritis severity using a standardized method based on the degree of joint inflammation. High resolution digital radiographs of hind limbs were obtained at the conclusion of the study (Day 28). These limbs were also analyzed for histopathologic changes. IgG antibodies to native CII were measured in quadruplicate by ELISA. […] Brahn. 2004). Blinded composite histopathologic studies confirmed the regression of pannus and erosions: […] Antibodies to native CII were not decreased in Compound 1-treated rats.

A short description of data set [13]: Safety pharmacology: cardiovascular study. In kind it is in vivo. Conditions: 50 mg/kg. As for the experimental part:
(§2) GLP toxicology studies included negative mutagenicity and clastogenicity studies (Ames, chromosomal aberration, and mouse micronucleus). […] The No Observed Adverse Effect Level (NOAEL) is 10-30 mg/kg/day for rats and 100 mg/kg/day for monkeys.

Data set [14] is described as follows: Safety pharmacology: CNS (Irwin) study. In kind it is in vivo. Conditions: 50 mg/kg. As for the experimental part: as §2
Data set [15] in a line: GLP mutagenicity and clastogenicity studies (Ames, chromosomal aberration, mouse micronucleus). How it is done: as §2
The conditions of data set [16]: monkey, in vivo. How it is done:
as §2

The conditions of data set [17]: rat, in vivo.
[18] abbreviates: water solubility, aqueous buffer under physiological conditions, read-out: Solubility.

In brackets after ≈: the same amount, converted by molar mass. Entries after “also recorded” stand apart in the source; their conditions may differ. Read-outs that look alike come from different tables or passages of the source.

A word on the solubility: it is the concentration that dissolves in the medium under given conditions. With `COc1cc(Nc2ncc(F)c(Nc3ccc4c(n3)N(COP(=O)(O)O)C(=O)C(C)(C)O4)n2)cc(OC)c1OC` [Compound 4, N4-(2,2-dimethyl-4-[(dihydrogenphosphonoxy)methyl]-3-oxo-5-pyrido[1,4]oxazin-6-yl)-5-fluoro-N2-(3,4,5-trimethoxyphenyl)-2,4-pyrimidinediamine], the “Solubility of prodrug relative to active drug Compound 1” value in data set [1] (same conditions, Compound 4 vs Compound 1) is on record as “approximately 2000 times”. In addition, the solubility in [1] (setting [18]) was > 5000 µg/mL. Moreover, the stability of prodrug entry in [2] is reported as “stable”. Moreover, the “conversion of prodrug Compound 4 to drug Compound 1” value in [3] (microsomal preparations obtained from Xenotech, FIG. 9) is on record as “failed to convert”; in [3] (rat intestinal and hepatic microsomes from a different source (data not shown)) it was “metabolize to the active drug Compound 1; also recorded: conversion of Compound 4 to Compound 1 was observed”. In data set [4], the “stability in rat plasma, hydrolysis to drug Compound 1” value is “metabolize to the active drug Compound 1; also recorded: unstable”. Further, the “plasma levels of drug metabolite Compound 1 after dosing prodrug” value in data set [5] (Compound 4 given orally in PEG-400) is “high levels”. Besides, the “disappearance / clearance of prodrug from plasma” value in data set [5] (IV, 1 mg/kg in PEG-400, 1 mg/kg) is listed as “Rapid disappearance; also recorded: rapidly cleared”. In addition, the “systemic presence of prodrug after oral dosing” value in [5] (given orally in PEG-400) was “no prodrug Compound 4 was present systemically”. Moreover, the “AUC/dose of drug Compound 1 exposure (absorption), prodrug vs drug” value in [5] (oral, Compound 1 2.5 mg/kg in PEG-400 vs Compound 4 4 mg/kg in PEG-400, FIG. 6) was “nearly identical”. In addition, the “absorption from different vehicles” value in [5] (oral, rats, PEG-400 and carboxymethylcellulose solutions, powder in hard gelatin capsules, FIG. 11) was “absorbed equally well; also recorded: not dependent on formulation”.
One may read the EC50 as the concentration giving half of the maximal effect. By inhibition is commonly meant the relative decrease from the control value, in per cent. Turning to `COc1cc(Nc2ncc(F)c(Nc3ccc4c(n3)NC(=O)C(C)(C)O4)n2)cc(OC)c1OC` [Compound 1, N4-(2,2-dimethyl-3-oxo-4H-5-pyrido[1,4]oxazin-6-yl)-5-fluoro-N2-(3,4,5-trimethoxyphenyl)-2,4-pyrimidinediamine], in [1] (aqueous buffer, phosphate buffer at pH=7.5, data not shown, read-out: measured solubility), the solubility is < 1 µg/mL. For the same compound, the solubility in data set [1] (setting [18]) fell in the range of 1 to 2 µg/mL (≈ 2.13 to 4.25 µM). The EC50 in data set [6] was ~0.043 µM. The “inhibition of ionomycin-induced degranulation” value in data set [7] is given as “does not inhibit”. Further, the EC50 in [8] came out at 0.039 µM. In data set [9], the EC50 fell in the range of 0.158 to 0.462 µM. In addition, the inhibition at 10 mg/kg in [10] (Rattus norvegicus, 10 mg/kg oral, compared with vehicle control, read-out: inhibition of extravascular leakage of Evans blue dye (OD610) from tissue biopsies) is 80%. In addition, the “cutaneous RPA reaction and inflammatory edema” value in [10] (single oral treatment one hour prior to antigen/antibody administration) is “reduced the cutaneous RPA reaction and inflammatory edema in a dose-dependent manner”. The “arthritis severity, disease incidence, time of onset” value in data set [11] (lower dose levels, differences not significant (p>0.05)) was “trend toward reduced arthritis severity, disease incidence, and time of onset”. For the same compound, the “clinical arthritis vs vehicle” value in data set [11] (oral, b.i.d., p<0.05) is on record as “significantly reduced clinical arthritis”. Further, the arthritis severity entry in data set [12] (30 mg/kg q.d. p.o., evident within 7 days after initiation of therapy, p<0.05) is given as “significant reduction”. Also, the “Mean modified Mankin scores (histopathology, pannus and erosions)” value in data set [12] (30 mg/kg, p<0.001 vs vehicle) worked out at 3.7±0.9. In data set [12] (Day 28, 30 mg/kg q.d. p.o., p<0.001 vs vehicle), this compound registered a clinical score of 2.54±0.98. Further, the “joint damage, blinded radiographs” value in data set [12] (Day 28, p<0.02 vs vehicle) worked out at 1.63±0.67. For the same compound, the cardiovascular effect entry in data set [13] was “slight reduction in heart rate and increase in RR interval”. The behavioral effect entry in [14] is “slight effect on a few behavioral parameters”. Moreover, the mutagenicity and clastogenicity result in [15] was “negative”. In addition, the “effect on hematology and bone marrow cellularity” value in [16] is “reversible effect”. Also, in data set [17], the “CD45RA+ cells (immunophenotyping)” value was “significant increase”; the Histopathology result is given as “mild reductions in marrow cellularity”; the “effect on hematology, liver transaminase (mild), spleen and thymus size, bone marrow cellularity” value is reported as “reversible effect”; the “humoral immunity, anti-KLH antibody assessment” value was “no evidence for untoward effects”. Also, in data set [17], the “percentage of CD3+ cells (immunophenotyping)” value is reported as “significant decrease”.

Values taken from patent US10577381B2, “Prodrugs of 2,4-pyrimidinediamine compounds and their uses” (Rigel Pharmaceuticals, Inc., priority 2005, dated 2020).
